According to patent US20100099564A1, “HERBICIDE COMBINATION COMPRISING DIMETHOXYTRIAZINYL-SUBSTITUTED DIFLUOROMETHANESULFONYLANILIDES” (BAYER CROPSCIENCE AG, priority 2008, published 2010):
Values belong to the compound of their own block, whether it stands above or below them.

Legend:
Type in all cases: in vivo
[1] = tested on: Lolium multiflorum (LOLMU); test: Post-emergence action, greenhouse pot test, visual scoring: LOLMU; conditions: for (7) % activity found: 21 DAT
Protocol: (§1) Seeds or rhizome pieces of mono- and dicotyledonous harmful and useful plants were placed in peat pots (diameter 4 cm) filled with sandy loam and then covered with soil. The pots were kept in a greenhouse under optimum conditions. In addition, harmful plants encountered in paddy rice cultivation were cultivated in pots with a water level 2 cm above the soil surface.
(§2) About three weeks after the start of the cultivation, the test plants were treated at the 2- to 3-leaf stage. The herbicides, formulated as powder or liquid concentrates, were, either alone or in the combinations according to the invention, sprayed in various dosages on to the green parts of the plants using an application rate of 600 l of water/ha (converted). For further cultivation of the plants, the pots were then again kept under optimum conditions in a greenhouse.
(§3) The visual scoring of the herbicidal effects was carried out in intervals up to 21 days after the treatment. Scoring was carried out in percent in comparison to the untreated control plants. 0%=no herbicidal activity, 100%=complete herbicidal activity=complete kill.
(§4) The percentages from the treatments with the herbicides alone (=individual application) and with the combinations according to the invention (=mixtures) were employed to calculate interactions using the method of Colby. When the observed efficacies of the mixtures exceed the formal sum of the values of the tests with individual applications, they also exceed the expected value according to Colby, which is calculated using the formula below (cf. S. R. Colby; in Weeds 15 (1967) pp. 20 to 22):
(§5) Here: • A, B=activity of components A and B in percent at a dosage of a and b g of ai/ha (=gramm of active substance per hectare), respectively. • E=expected value in % at a dosage of a+b g of ai/ha.
(§6) The combinations according to the invention of herbicides from group (A) with herbicides from group (B) were tested on a broad spectrum of important harmful plants (weed grasses, broad-leaved weeds/Cyperaceae) and useful plants: Triticum aestivum (TRZAS), Stellaria media (STEME), Lolium multiflorum (LOLMU), Veronica persica (VERPE), Alopecurus myosuroides (ALOMY), Matricaria inodora (MATIN), Brassica napus (BRSNW), Viola tricolor (VIOTR), Avena fatua (AVEFA), Amaranthus retroflexus (AMARE), Zea mays (ZEAMX), Pharbitis purpurea (PHBPU), Setaria viridis (SETVI), Fallopia (ex Polygonum) convolvulus (POLCO), Echinochloa crusgaffi (ECHCG), Abuthilon theophrasti (ABUTH), Cyperus esculentus (CYPES), Oryza sativa (ORYSA).
(§7) Of particular interest are the results shown in the tables (Tab.) below, where the following key is used: • (1) EPPO code (former Bayer code) for the treated plant (see above) • (2) Time of scoring: DAT (days after treatment) • (3) Component A tested (identifying number) • (4) Component B tested (identifying number) • (5) Dosage component A [g of ai/ha] • (6) Dosage component B [g of ai/ha] • (7) % activity found • (8) E value (calculated according to Colby; see above) • (9) Comments: “SYNERGY” =synergistic interaction (E value<% activity found); “SAFENING”=safener action on useful plant (E value>% activity found)

[2] = tested on: Pharbitis purpurea (PHBPU); test: Post-emergence action, greenhouse pot test, visual scoring: PHBPU
Protocol: as §1, §2, §3, §4, §5, §6, §7

[3] = tested on: Alopecurus myosuroides (ALOMY); test: Post-emergence action, greenhouse pot test, visual scoring: ALOMY; conditions: 21 DAT
Protocol: as §1, §2, §3, §4, §5

[4] = tested on: Matricaria inodora (MATIN); test: Post-emergence action, greenhouse pot test, visual scoring: MATIN
Protocol: as §1, §2, §3, §4, §5

[5] = tested on: Oryza sativa (ORYSA); test: Post-emergence action, greenhouse pot test, visual scoring: ORYSA
Protocol: as §1, §2, §3, §4, §5, §6, §7

[6] = tested on: Stellaria media (STEME); test: Post-emergence action, greenhouse pot test, visual scoring: STEME; conditions: 10 DAT
Protocol: as §1, §2, §3, §4, §5, §6, §7

[7] = tested on: Echinochloa crusgaffi (ECHCG); test: Post-emergence action, greenhouse pot test, visual scoring: ECHCG; conditions: for % activity found: 21 DAT
Protocol: as §1, §2, §3, §4, §5, §6, §7

[8] = tested on: Triticum aestivum (TRZAS); test: Post-emergence action, greenhouse pot test, visual scoring: TRZAS
Protocol: as §1, §2, §3, §4, §5, §6, §7

[9] = tested on: Zea mays (ZEAMX); test: Post-emergence action, greenhouse pot test, visual scoring: ZEAMX
Protocol: as §1, §2, §3, §4, §5, §6, §7

[10] = tested on: Avena fatua (AVEFA); test: Post-emergence action, greenhouse pot test, visual scoring: AVEFA; conditions: 21 DAT
Protocol: as §1, §2, §3, §4, §5, §6, §7

[11] = tested on: Veronica persica (VERPE); test: Post-emergence action, greenhouse pot test, visual scoring: VERPE
Protocol: as §1, §2, §3, §4, §5, §6, §7

[12] = tested on: Cyperus esculentus (CYPES); test: Post-emergence action, greenhouse pot test, visual scoring: CYPES
Protocol: as §1, §2, §3, §4, §5

[13] = tested on: Fallopia (ex Polygonum) convolvulus (POLCO); test: Post-emergence action, greenhouse pot test, visual scoring: POLCO; conditions: 21 DAT
Protocol: as §1, §2, §3, §4, §5, §6, §7

[14] = tested on: Abuthilon theophrasti (ABUTH); test: Post-emergence action, greenhouse pot test, visual scoring: ABUTH
Protocol: as §1, §2, §3, §4, §5, §6, §7

[15] = tested on: Viola tricolor (VIOTR); test: Post-emergence action, greenhouse pot test, visual scoring: VIOTR; conditions: rate (5) 4
Protocol: as §1, §2, §3, §4, §5, §6, §7

[16] = tested on: Setaria viridis (SETVI); test: Post-emergence action, greenhouse pot test, visual scoring: SETVI; conditions: 21 DAT
Protocol: as §1, §2, §3, §4, §5, §6, §7

[17] = tested on: Amaranthus retroflexus (AMARE); test: Post-emergence action, greenhouse pot test, visual scoring: AMARE
Protocol: as §1, §2, §3, §4, §5

(7) % activity found ([5]; 10 DAT, rate (5) 4): 10%
(7) % activity found ([5]; 10 DAT, rate (5) 12): 10%
(7) % activity found ([5]; 21 DAT, rate (5) 4): 0%
(7) % activity found ([5]; 21 DAT, rate (5) 12): 10%
Structure (SMILES): COc1nc(OC)nc(C(=O)c2cccc(F)c2N(C)S(=O)(=O)C(F)F)n1 [A-1]
(7) % activity found ([1]; rate (5) 4): 0%
(7) % activity found ([1]; rate (5) 12): 10%
% activity found ([2]; 10 DAT, dose (5) 4): 60%
% activity found ([2]; 21 DAT, dose (5) 4): 60%
(7) % activity found ([2]; 21 DAT, rate (5) 12): 65%
(7) % activity found ([3]; rate (5) 4): 40%
(7) % activity found ([3]; rate (5) 12): 50%
% activity found ([4]; 10 DAT, A 12 g of ai/ha): 70%
% activity found ([6]; dose (5) 4): 70%
% activity found ([6]; dose (5) 12): 70%
(7) % activity found ([7]; 10 DAT, rate (5) 12): 70%
% activity found ([7]; dose (5) 4): 85%
(7) % activity found ([8]; 10 DAT, rate (5) 4): 0%
(7) % activity found ([8]; 10 DAT, rate (5) 12): 0%
(7) % activity found ([8]; 21 DAT, rate (5) 4): 0%
(7) % activity found ([8]; 21 DAT, rate (5) 12): 0%
(7) % activity found ([9]; 10 DAT, rate (5) 4): 0%
(7) % activity found ([9]; 10 DAT, rate (5) 12): 0%
(7) % activity found ([9]; 21 DAT, rate (5) 12): 0%
(7) % activity found ([10]; rate (5) 4): 10%
(7) % activity found ([10]; rate (5) 12): 30%
(7) % activity found ([11]; 21 DAT, rate (5) 4): 30%
(7) % activity found ([11]; 21 DAT, rate (5) 12): 40%
(7) % activity found ([12]; 10 DAT, rate (5) 4): 70%
(7) % activity found ([12]; 10 DAT, rate (5) 12): 70%
(7) % activity found ([12]; 21 DAT, rate (5) 4): 80%
(7) % activity found ([12]; 21 DAT, rate (5) 12): 80%
(7) % activity found ([13]; rate (5) 4): 75%
(7) % activity found ([13]; rate (5) 12): 70%
% activity found ([14]; 21 DAT, dose (5) 4): 85%
% activity found ([14]; 21 DAT, dose (5) 12): 85%
(7) % activity found ([15]; 10 DAT): 20%
(7) % activity found ([15]; 21 DAT): 0%
(7) % activity found ([16]; rate (5) 4): 0%
(7) % activity found ([16]; rate (5) 12): 20%

Structure (SMILES): CCSC(=O)N1CCCCCC1 [B6-7, S-ethyl hexahydro-1H-azepine-1-carbothioate]
% activity found ([1]; 10 DAT, dose (6) 900): 20%
% activity found ([2]; 10 DAT, dose (6) 300): 0%
% activity found ([2]; 10 DAT, dose (6) 900): 0%
% activity found ([2]; 21 DAT, dose (6) 300): 0%
% activity found ([2]; 21 DAT, dose (6) 900): 0%
% activity found ([4]; 10 DAT, dose (6) 900): 20%
% activity found ([4]; 21 DAT, dose (6) 300): 30%
% activity found ([4]; 21 DAT, dose (6) 900): 30%
% activity found ([6]; dose (6) 300): 0%
% activity found ([6]; dose (6) 900): 0%
% activity found ([17]; 10 DAT, dose (6) 300): 0%
% activity found ([17]; 10 DAT, dose (6) 900): 0%
% activity found ([17]; 21 DAT, dose (6) 300): 0%
% activity found ([17]; 21 DAT, dose (6) 900): 0%
% activity found ([7]; dose (6) 300): 0%
% activity found ([7]; dose (6) 900): 0%
% activity found ([10]; dose (6) 300): 0%
% activity found ([11]; 10 DAT, dose (6) 900): 0%
% activity found ([11]; 21 DAT, dose (6) 300): 0%
% activity found ([13]; dose (6) 300): 0%
% activity found ([13]; dose (6) 900): 0%
% activity found ([14]; 10 DAT, dose (6) 300): 0%
% activity found ([14]; 10 DAT, dose (6) 900): 0%
